Laboratory results as given in ChEMBL document CHEMBL3797052 (Eur J Med Chem, 2016).

Key:
SK-MEL-5 = experiment: Antiproliferative activity against human SK-MEL-5 cells assessed as cell growth at 10^-4 M after 48 hrs by sulforhodamine B assay; assay type: functional; settings: SK-MEL-5, 48 h, read-out: Activity
NCI-H23 = experiment: Antiproliferative activity against human NCI-H23 cells assessed as cell growth at 10^-6 M after 48 hrs by sulforhodamine B assay; assay type: functional; settings: NCI-H23, 48 h, read-out: Activity
SK-MEL-2 = experiment: Antiproliferative activity against human SK-MEL-2 cells assessed as cell growth at 10^-8 M after 48 hrs by sulforhodamine B assay; assay type: functional; settings: SK-MEL-2, 48 h, read-out: Activity
[1] = Antiproliferative activity against human COLO205 cells assessed as cell growth at 10^-4 M after 48 hrs by sulforhodamine B assay; assay type: functional; settings: COLO 205, 48 h, read-out: Activity
[2] = Antiproliferative activity against human MOLT4 cells assessed as cell growth at 10^-6 M after 48 hrs by sulforhodamine B assay; assay type: functional; settings: MOLT-4, 48 h, read-out: Activity
SK-MEL-28 [3] = experiment: Antiproliferative activity against human SK-MEL-28 cells assessed as cell growth at 10^-7 M after 48 hrs by sulforhodamine B assay; assay type: functional; settings: SK-MEL-28, 48 h, read-out: Activity
[4] = Antiproliferative activity against human BT549 cells assessed as cell growth at 10^-7 M after 48 hrs by sulforhodamine B assay; assay type: functional; settings: BT-549, 48 h, read-out: Activity
[5] = Antiproliferative activity against human RPMI8226 cells assessed as cell growth at 10^-6 M after 48 hrs by sulforhodamine B assay; assay type: functional; settings: RPMI-8226, 48 h, read-out: Activity
MCF7 = experiment: Antiproliferative activity against human MCF7 cells assessed as growth inhibition after 48 hrs by sulforhodamine B assay; assay type: functional; settings: MCF7, 48 h
[6] = Antiproliferative activity against human DU145 cells assessed as cell growth at 10^-7 M after 48 hrs by sulforhodamine B assay; assay type: functional; settings: DU-145, 48 h, read-out: Activity
[7] = Antiproliferative activity against human HL-60(TB) cells assessed as cell growth at 10^-4 M after 48 hrs by sulforhodamine B assay; assay type: functional; settings: HL-60, 48 h, read-out: Activity
SK-MEL-28 [8] = experiment: Antiproliferative activity against human SK-MEL-28 cells assessed as cell growth at 10^-4 M after 48 hrs by sulforhodamine B assay; assay type: functional; settings: SK-MEL-28, 48 h, read-out: Activity
[9] = Antiproliferative activity against human UACC257 cells assessed as cell growth at 10^-8 M after 48 hrs by sulforhodamine B assay; assay type: functional; settings: UACC-257, 48 h, read-out: Activity
[10] = Antiproliferative activity against human RXF393 cells assessed as cell growth at 10^-4 M after 48 hrs by sulforhodamine B assay; assay type: functional; settings: RXF 393, 48 h, read-out: Activity
[11] = Antiproliferative activity against human UACC62 cells assessed as growth inhibition after 48 hrs by sulforhodamine B assay; assay type: functional; settings: UACC-62, 48 h
[12] = Antiproliferative activity against human OVCAR3 cells assessed as cell growth at 10^-6 M after 48 hrs by sulforhodamine B assay; assay type: functional; settings: OVCAR-3, 48 h, read-out: Activity
[13] = Antiproliferative activity against human SW620 cells assessed as growth inhibition after 48 hrs by sulforhodamine B assay; assay type: functional; settings: SW-620, 48 h
MDA-MB-468 = experiment: Antiproliferative activity against human MDA-MB-468 cells assessed as growth inhibition after 48 hrs by sulforhodamine B assay; assay type: functional; settings: MDA-MB-468, 48 h
[14] = Antiproliferative activity against human OVCAR8 cells assessed as growth inhibition after 48 hrs by sulforhodamine B assay; assay type: functional; settings: OVCAR-8, 48 h
[15] = target: Serine/threonine-protein kinase B-raf (Homo sapiens, UniProt P15056, V600E); experiment: Inhibition of BRAF V600E mutant (unknown origin) measured after 40 mins by scintillation counting
CCRF-CEM = experiment: Antiproliferative activity against human CCRF-CEM cells assessed as cell growth at 10^-4 M after 48 hrs by sulforhodamine B assay; assay type: functional; settings: read-out: Activity
[16] = Antiproliferative activity against human Caki1 cells assessed as cell growth at 10^-7 M after 48 hrs by sulforhodamine B assay; assay type: functional; settings: CAKI-1, 48 h, read-out: Activity
U-251 = experiment: Antiproliferative activity against human U251 cells assessed as cell growth at 10^-8 M after 48 hrs by sulforhodamine B assay; assay type: functional; settings: U-251, 48 h, read-out: Activity
CYP3A4 = CYP3A4 (Homo sapiens, UniProt P08684); experiment: Inhibition of recombinant human CYP3A4 assessed as remaining enzyme activity using CYP3A4 blue as substrate at 10 uM after 5 mins in presence of NADP by fluorescence plate reader analysis; assay type: ADME; settings: recombinant human CYP3A4, probe CYP3A4 blue, read-out: Activity
[17] = Antiproliferative activity against human HOP92 cells assessed as cell growth at 10^-6 M after 48 hrs by sulforhodamine B assay; assay type: functional; settings: HOP-92, 48 h, read-out: Activity
[18] = Antiproliferative activity against human MOLT4 cells assessed as growth inhibition after 48 hrs by sulforhodamine B assay; assay type: functional; settings: MOLT-4, 48 h
[19] = Antiproliferative activity against human IGROV1 cells assessed as cell growth at 10^-4 M after 48 hrs by sulforhodamine B assay; assay type: functional; settings: IGROV-1, 48 h, read-out: Activity
A498 = experiment: Antiproliferative activity against human A498 cells assessed as cell growth at 10^-7 M after 48 hrs by sulforhodamine B assay; assay type: functional; settings: A498, 48 h, read-out: Activity
[20] = Antiproliferative activity against human SNB75 cells assessed as cell growth at 10^-8 M after 48 hrs by sulforhodamine B assay; assay type: functional; settings: SNB-75, 48 h, read-out: Activity
[21] = Antiproliferative activity against human HOP92 cells assessed as cell growth at 10^-4 M after 48 hrs by sulforhodamine B assay; assay type: functional; settings: HOP-92, 48 h, read-out: Activity
T47D = experiment: Antiproliferative activity against human T47D cells assessed as cell growth at 10^-7 M after 48 hrs by sulforhodamine B assay; assay type: functional; settings: read-out: Activity
[22] = Antiproliferative activity against human HOP62 cells assessed as growth inhibition after 48 hrs by sulforhodamine B assay; assay type: functional; settings: HOP-62, 48 h
SN12C = experiment: Antiproliferative activity against human SN12C cells assessed as cell growth at 10^-7 M after 48 hrs by sulforhodamine B assay; assay type: functional; settings: read-out: Activity
[23] = Antiproliferative activity against human HCT15 cells assessed as growth inhibition after 48 hrs by sulforhodamine B assay; assay type: functional; settings: HCT-15, 48 h
K562 = experiment: Antiproliferative activity against human K562 cells assessed as cell growth at 10^-4 M after 48 hrs by sulforhodamine B assay; assay type: functional; settings: K562, 48 h, read-out: Activity
[24] = read-out: LC50 (the source's name)

Sequence of CYP3A4 (P08684 whole entry): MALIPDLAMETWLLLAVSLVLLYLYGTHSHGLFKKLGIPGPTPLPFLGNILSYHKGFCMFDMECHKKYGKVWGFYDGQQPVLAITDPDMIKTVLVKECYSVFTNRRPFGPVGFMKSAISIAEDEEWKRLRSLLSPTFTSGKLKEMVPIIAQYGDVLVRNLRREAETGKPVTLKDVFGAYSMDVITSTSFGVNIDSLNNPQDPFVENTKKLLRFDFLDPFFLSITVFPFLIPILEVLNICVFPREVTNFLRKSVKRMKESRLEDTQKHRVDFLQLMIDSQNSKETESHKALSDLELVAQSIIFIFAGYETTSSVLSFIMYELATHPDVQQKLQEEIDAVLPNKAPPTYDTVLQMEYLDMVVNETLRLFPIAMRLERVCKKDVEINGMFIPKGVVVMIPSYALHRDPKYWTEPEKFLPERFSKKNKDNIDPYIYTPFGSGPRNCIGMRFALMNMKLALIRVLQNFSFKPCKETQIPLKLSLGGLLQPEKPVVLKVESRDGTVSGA
Sequence of Serine/threonine-protein kinase B-raf (P15056 2-766 V600E limits assumed): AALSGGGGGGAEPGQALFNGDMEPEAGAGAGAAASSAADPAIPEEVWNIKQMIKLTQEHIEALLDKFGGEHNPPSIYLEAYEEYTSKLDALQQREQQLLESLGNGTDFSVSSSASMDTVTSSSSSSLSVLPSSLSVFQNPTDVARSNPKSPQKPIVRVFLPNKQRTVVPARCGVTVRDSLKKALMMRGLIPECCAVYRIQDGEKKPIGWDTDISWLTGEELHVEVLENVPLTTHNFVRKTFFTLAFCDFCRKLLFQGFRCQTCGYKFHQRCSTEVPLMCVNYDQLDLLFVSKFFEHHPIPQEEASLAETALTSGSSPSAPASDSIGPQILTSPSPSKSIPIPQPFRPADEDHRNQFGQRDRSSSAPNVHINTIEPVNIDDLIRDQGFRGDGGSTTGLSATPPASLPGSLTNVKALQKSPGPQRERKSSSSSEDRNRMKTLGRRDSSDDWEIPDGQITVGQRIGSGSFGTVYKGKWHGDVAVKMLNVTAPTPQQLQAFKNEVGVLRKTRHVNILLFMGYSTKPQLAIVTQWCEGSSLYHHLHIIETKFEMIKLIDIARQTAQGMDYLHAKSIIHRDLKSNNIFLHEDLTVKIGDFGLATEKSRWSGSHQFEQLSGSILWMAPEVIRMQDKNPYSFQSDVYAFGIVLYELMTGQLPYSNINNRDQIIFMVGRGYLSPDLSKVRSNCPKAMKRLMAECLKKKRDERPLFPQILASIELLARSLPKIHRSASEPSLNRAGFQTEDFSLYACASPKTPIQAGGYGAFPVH

SMILES: CNC(=O)c1cc(Oc2ccc3nc(NC(=O)Nc4ccc(Cl)c(Cl)c4)sc3c2)ccn1
- growth at 100 µM (SK-MEL-5): -23%
- growth at 1 µM (NCI-H23): 88%
- growth at 0.01 µM (SK-MEL-2): 115%
- growth at 100 µM [1]: 26%
- growth at 1 µM [2]: 99%
- growth at 0.1 µM (SK-MEL-28 [3]): 100%
- growth at 0.1 µM [4]: 104%
- growth at 1 µM [5]: 103%
- GI50 (MCF7): 2.65 µM
- TGI (MCF7): > 100 µM
- CC50 (MCF7; [24]): > 100 µM
- growth at 0.1 µM [6]: 101%
- growth at 100 µM [7]: 89%
- growth at 100 µM (SK-MEL-28 [8]): -51%
- growth at 0.01 µM [9]: 92%
- growth at 100 µM [10]: -85%
- GI50 [11]: 2.32 µM
- TGI [11]: 7.76 µM
- CC50 [11, 24]: > 100 µM
- growth at 1 µM [12]: 99%
- GI50 [13]: 8.11 µM
- TGI [13]: > 100 µM
- CC50 [13, 24]: > 100 µM
- GI50 (MDA-MB-468): 1.97 µM
- TGI (MDA-MB-468): 5.09 µM
- CC50 (MDA-MB-468; [24]): > 100 µM
- GI50 [14]: 2.36 µM
- LC50 [14]: 73.9 µM
- TGI [14]: 5.27 µM
- IC50 [15]: 0.095 µM
- growth at 100 µM (CCRF-CEM): 79%
- growth at 0.1 µM [16]: 99%
- growth at 0.01 µM (U-251): 98%
- activity at 5 min, 10 µM (CYP3A4): 104%
- growth at 1 µM [17]: 119%
- GI50 [18]: > 100 µM
- LC50 [18]: > 100 µM
- TGI [18]: > 100 µM
- growth at 100 µM [19]: -20%
- growth at 0.1 µM (A498): 110%
- growth at 0.01 µM [20]: 76%
- growth at 100 µM [21]: -66%
- growth at 0.1 µM (T47D): 106%
- GI50 [22]: 2.24 µM
- LC50 [22]: 7.15 µM
- TGI [22]: 4 µM
- growth at 0.1 µM (SN12C): 107%
- GI50 [23]: 3.71 µM
- LC50 [23]: > 100 µM
- TGI [23]: > 100 µM
- growth at 100 µM (K562): 53%
